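Results reflect a 48-hour exposure of cells in 96-well plates to compound at five concentrations. The concentration for 50% growth inhibition is given as GI50.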 The source made the active and inactive calls. Cut-off read from the data, not from the text of the source: active = GI50 up to about 1.1 µM and inactive = higher.
Legend:
Test in all cases: NCI anticancer screen, dose series, 48 h
NCI/ADR-RES = tested on: NCI/ADR-RES
SNB-75 = tested on: SNB-75
LOX IMVI = tested on: LOX IMVI
OVCAR-8 = tested on: OVCAR-8
ACHN = tested on: ACHN
HCC 2998 = tested on: HCC 2998
MDA-MB-231 = tested on: MDA-MB-231
PC-3 = tested on: PC-3
UO-31 = tested on: UO-31
NCI-H23 = tested on: NCI-H23
HCT-116 = tested on: HCT-116
SF-268 = tested on: SF-268
MOLT-4 = tested on: MOLT-4
HCT-15 = tested on: HCT-15
CCRF-CEM = tested on: CCRF-CEM
SN12C = tested on: SN12C
K562 = tested on: K562
KM12 = tested on: KM12
786-0 = tested on: 786-0
NCI-H226 = tested on: NCI-H226

SMILES | GI50 (NCI/ADR-RES) | GI50 (SNB-75) | GI50 (LOX IMVI) | GI50 (OVCAR-8) | GI50 (ACHN) | GI50 (HCC 2998) | GI50 (MDA-MB-231) | GI50 (PC-3) | GI50 (UO-31) | GI50 (NCI-H23) | GI50 (HCT-116) | GI50 (SF-268) | GI50 (MOLT-4) | GI50 (HCT-15) [µM] | GI50 (CCRF-CEM) | GI50 (SN12C) | GI50 (K562) | GI50 (KM12) | GI50 (786-0) | GI50 (NCI-H226)
Clc1cc(OCC23CC4CC(CC(C4)C2)C3)nc(OCC23CC4CC(CC(C4)C2)C3)n1 | > 100 µM (inactive) | > 100 µM (inactive) | > 100 µM (inactive) | > 100 µM (inactive) | > 100 µM (inactive) | > 100 µM (inactive) | > 100 µM (inactive) | > 100 µM (inactive) | > 100 µM (inactive) | > 100 µM (inactive) | > 100 µM (inactive) | > 100 µM (inactive) | > 100 µM (inactive) | > 100 | > 100 µM (inactive) | > 100 µM (inactive) | > 100 µM (inactive) | > 100 µM (inactive) | > 100 µM (inactive) | 
COC1C(O)C(C)OC(OC2C(Oc3cccc4c(O)c5c(=O)oc6ccc(C)c7c(=O)oc(c34)c5c67)OC(C)C3O[C@H](c4ccccc4)OC32)C1O (stereo partly specified) | 2.12 µM (inactive) | 0.583 µM (active) |  | 0.034 µM (active) | 0.0378 µM (active) | 0.453 µM (active) | 0.845 µM (active) | 0.361 µM (active) | 0.294 µM (active) |  |  | 0.135 µM (active) |  | 0.168 |  | 0.0578 µM (active) |  |  | 0.0521 µM (active) | 0.0682 µM (active)
O=C(NNC(=S)Nc1ccccc1)C12CC3CC(CC(C3)C1)C2 | 15.5 µM (inactive) | 29.4 µM (inactive) | 11.2 µM (inactive) | 21.7 µM (inactive) | 20.3 µM (inactive) | 30.9 µM (inactive) | 40 µM (inactive) | 18.2 µM (inactive) | 4.58 µM (inactive) | 31.8 µM (inactive) | 13.6 µM (inactive) | 17.1 µM (inactive) | 10 µM (inactive) | 7.28 | 6.92 µM (inactive) | 24.5 µM (inactive) | 12.7 µM (inactive) | 43.2 µM (inactive) | 19.3 µM (inactive) | 26.7 µM (inactive)
O=C1C=C2C(=NC34CCCCC3C(c3ccccc3)C3=C(c5ccccc5CC3)N24)c2ccccc21 (stereo unspecified) | > 10 µM (inactive) | 8.95 µM (inactive) | > 10 µM (inactive) | > 10 µM (inactive) | > 10 µM (inactive) | > 10 µM (inactive) | > 10 µM (inactive) | > 10 µM (inactive) |  | > 10 µM (inactive) | > 10 µM (inactive) | > 10 µM (inactive) | > 10 µM (inactive) | > 10 | > 10 µM (inactive) | > 10 µM (inactive) | > 10 µM (inactive) | > 10 µM (inactive) | > 10 µM (inactive) | > 10 µM (inactive)
COc1ccc(C2Oc3c(cccc3-c3c(-c4ccc(O)cc4)oc4cc(O)cc(O)c4c3=O)C(=O)C2O)cc1O (stereo unspecified) | > 100 µM (inactive) | 60.4 µM (inactive) |  | > 100 µM (inactive) | > 100 µM (inactive) | > 100 µM (inactive) | > 100 µM (inactive) | > 100 µM (inactive) | > 100 µM (inactive) | > 100 µM (inactive) | > 100 µM (inactive) | > 100 µM (inactive) | > 100 µM (inactive) | > 100 | > 100 µM (inactive) | > 100 µM (inactive) | > 100 µM (inactive) |  | > 100 µM (inactive) | > 100 µM (inactive)
CSc1c(C(=O)Nc2ccc(Cl)cc2)c(N)n(N)c(=O)c1C#N | 58.1 µM (inactive) | > 100 µM (inactive) | 31.8 µM (inactive) | 55.2 µM (inactive) |  | 54.1 µM (inactive) | > 100 µM (inactive) | 79.8 µM (inactive) | 31.6 µM (inactive) | 61.5 µM (inactive) | 32.6 µM (inactive) | > 100 µM (inactive) | 76.9 µM (inactive) | 77.4 | 42.4 µM (inactive) | > 100 µM (inactive) | 46.6 µM (inactive) | 45.9 µM (inactive) | > 100 µM (inactive) | 89.7 µM (inactive)
Cc1c(/C=N/NC(=S)Nc2ccc([N+](=O)[O-])cc2)c(=O)n(-c2ccccc2)n1C | 9.66 µM (inactive) | 13.3 µM (inactive) | 15.2 µM (inactive) | 13.6 µM (inactive) | 11.5 µM (inactive) | 42.3 µM (inactive) | 20.7 µM (inactive) | 19.1 µM (inactive) | 11.4 µM (inactive) | 17.9 µM (inactive) | 18.6 µM (inactive) | 13.5 µM (inactive) | 9.48 µM (inactive) | 3.08 | 7.29 µM (inactive) |  | 47.1 µM (inactive) | 13.1 µM (inactive) | 14.3 µM (inactive) | 10.8 µM (inactive)
CC1=C(C#N)C(=C(C#N)C#N)OC1(C)Cc1ccccc1 (stereo unspecified) | 31.9 µM (inactive) | > 100 µM (inactive) | 23.4 µM (inactive) | 65.5 µM (inactive) | 18.5 µM (inactive) | 29.5 µM (inactive) | 47.9 µM (inactive) | 36.2 µM (inactive) | 18.7 µM (inactive) | 36.7 µM (inactive) | 36.7 µM (inactive) | 49.5 µM (inactive) | 34.3 µM (inactive) | 23.3 |  | 82.6 µM (inactive) | 39.6 µM (inactive) | 55.5 µM (inactive) | 41.7 µM (inactive) | 31.2 µM (inactive)

— ChEMBL document CHEMBL1201862, “PubChem BioAssay data set” (2004)
